US9446019B2, “Sparstolonin B based pharmaceutical agent for neuroblastoma treatment” (University of South Carolina, priority 2013, dated 2016)

Assays:
[1] = tested on: normal human cells (THP-1 cells, PMA-differentiated THP-1 macrophages, human umbilical vein endothelial cells, human aortic smooth muscle cells); assay: Cytotoxic response in normal human cells; format: cell-based; details: 1-20 μM and up to about 100 μM
neuroblastoma cell lines = assay: Cell cycle analysis by flow cytometry, all lines together; format: cell-based, human
Description: The cell cycle progression was determined by flow cytometer analysis. Neuroblastoma cells were treated with SsnB or DMSO in DMEM with 10% FBS. Cells were collected after trypsinization with trypsin-EDTA solution (Atlanta Biologicals) and washed with 1× phosphate buffered saline (PBS). Approximately 1×10^6 cells were suspended in 300 μl of ice-cold 1×PBS, fixed by adding 700 μl of chilled absolute ethanol (to make final ethanol concentration 70%) drop wise and incubated for overnight at −20° C. Cells were pelleted at 1000×rpm for 5 min at 4° C., washed with 1×PBS for 3 times and stained with propidium iodide (Sigma-Aldrich, St. Louis, Mo.) by adding 1 ml of propidium iodide staining solution (containing 20 μg/ml propidium iodide and 10 μg/ml DNase-free RNase A in 0.1% Triton X-100/PBS) for 1 h on ice in dark. Samples were subjected to fluorescence-activated cell sorting analyses utilizing Beckman Coulter flow cytometer (Beckman Coulter, Indianapolis, Ind.). A minimum of 10,000 events were analyzed in each experiment.
To test whether SsnB-induced cell growth inhibition occurs through cell cycle arrest, cell cycle distribution was analyzed by flow cytometry after DNA staining with propidium iodide.

[2] = tested on: reactive oxygen species in neuroblastoma cells; assay: ROS generation, H2DCFDA staining, fluorescence microscopy; format: cell-based, human; details: SsnB 10 μM; SH-SY5Y and other neuroblastoma lines; p<0.05
Description: The production of reactive oxygen species (ROS) in SsnB-treated neuroblastoma cells was detected by a cell-permeable fluorescence probe H2DCFDA (carboxy-2′,7′-dichlorodihydrofluorescein diacetate) according to the manufacturer's instructions (Invitrogen, Carlsbad, Calif.). Briefly, neuroblastoma cells were cultured in DMEM with 10% FBS in Lab-TekII chamber slides (Fisher Scientific, Pittsburg, Pa.) and treated with SsnB for 2 days (SH-SY5Y and IMR-32 cells), 3 days (NGP cell) or 4 days (SKNF-1 and SK-N-BE(2) cells). […] Cells were washed three times with HBSS, mounted with Vectashield mounting medium (Vector Laboratories), and immediately examined under Nikon-E600 fluorescence microscopy equipped with fluorescein isothiocyanate (FITC) filter. Oxidation of H2DCFDA probe occurs almost exclusively in the cytosol, and generates a fluorescence that is proportional to ROS generation in that cell. […] Cells were trypsinized, washed, and re-suspended in PBS and fluorescence intensity was monitored at excitation wavelength 485 nm and emission wavelength 530 nm with a spectramax spectrophotometer (Molecular Devices, Sunnyvale, Calif.).
To test whether SsnB-induced cell death resulted from increased level of ROS, H2DCFDA staining was performed. […] The carboxy-DCF positive cells were quantitated by imageJ software and plotted. […]

`O=c1occ2c3c(ccc(O)c13)Oc1ccc(O)cc1-2` [SsnB, 8,5′-dihydroxy-4-phenyl-5,2′-oxidoisocoumarin] was tested, and the cytotoxic response [1] was “No cytotoxic response”, the “cell cycle progression vs DMSO” value (neuroblastoma cell lines; SsnB 1 μM) was “did not affect cell cycle progression” and the G0/G1 phase cells (neuroblastoma cell lines; SsnB 10 μM) was “decrease in G0/G1 phase cells”. The “number of carboxy-DCF positive cells vs DMSO” value [2] was “significantly increased”.
